Holding throughout (type): in vivo
In data set [1] the test system is Hartley guinea pigs. The data set can be described thus: Test Example 3 (safety test), sensitization, maximization method. The note with it: 1 wt % solution in acetone; induction at 10 wt %; female guinea pigs. As for the experimental part:
Test Example 3 (safety test) Method Five (5) or ten (10) Hartley guinea pigs (female, body weight: 350-400 g) are used. A 1 wt % solution of each test compound in acetone was prepared, and the solution was tested with respect to its sensitizing potential, primary stimulation to the skin, and photo-toxicity. As test compounds, three compounds, i.e., compound Nos. 1, 10, and 14 in Table 1, were used. The sensitization test was performed in accordance with the maximization method proposed by Magnusson [Magnusson, B and Kligman, A.M.,; "The identification of contact allergens by animal assay. The guinea pig maximization test" (J. Inv. Derm., 52, p268-276 (1969))]. The induction of sensitization was performed at a concentration of 10 wt %.

Data set [2] deals with Hartley guinea pigs. The experiment in a line: Test Example 3 (safety test), primary stimulation to the skin. The note with it: 1 wt % solution in acetone; female guinea pigs. The protocol: Test Example 3 (safety test) Method Five (5) or ten (10) Hartley guinea pigs (female, body weight: 350-400 g) are used. A 1 wt % solution of each test compound in acetone was prepared, and the solution was tested with respect to its sensitizing potential, primary stimulation to the skin, and photo-toxicity. As test compounds, three compounds, i.e., compound Nos. 1, 10, and 14 in Table 1, were used.

The subject of data set [3] is Hartley guinea pigs. The data set can be described thus: Test Example 3 (safety test), photo-toxicity. The note with it: 1 wt % solution in acetone; light source FL-40S.BLB (300-400 nm); female guinea pigs. The protocol:
Test Example 3 (safety test)
Five (5) or ten (10) Hartley guinea pigs (female, body weight: 350-400 g) are used. A 1 wt % solution of each test compound in acetone was prepared, and the solution was tested with respect to its sensitizing potential, primary stimulation to the skin, and photo-toxicity.
As test compounds, three compounds, i.e., compound Nos. 1, 10, and 14 in Table 1, were used.
The positive control compound used for the photo-toxicity was an ethanol solution containing 100 ppm of 8-methoxypsoralen (product of Aldrich). The light source used was FL-40S.BLB (300-400 nm; manufactured by Toshiba).

With `CCCCCCCCCCCCNCc1ccc(OC)c(O)c1` [Compound No. 10, N-lauryl-3-hydroxy-4-methoxybenzylamine], in the data set on Hartley guinea pigs [1], the Sensitization is 0/10. Also, the Primary stimulation with Hartley guinea pigs [2] is on record as 0/5. Besides, the Photo-toxicity in the data set on Hartley guinea pigs [3] was 0/5.
`CCCCCCCCCCCCN(C)Cc1cc(OC)c(OC)cc1OC` [Compound No. 14]: the Sensitization in the data set on Hartley guinea pigs [1] is 0/10. The Primary stimulation in the data set with Hartley guinea pigs [2] is listed as 0/5. In addition, the Photo-toxicity in the data set on Hartley guinea pigs [3] is on record as 0/5.
For the molecule `CCCCCCCCCCCCNCc1ccc2c(c1)OCO2` [Compound No. 1], the Sensitization with Hartley guinea pigs [1] is on record as 0/10. Besides, the Primary stimulation with Hartley guinea pigs [2] is reported as 0/5. Also, in the data set on Hartley guinea pigs [3], the Photo-toxicity is on record as 0/5.
